Patent US20250236654A1, “C-TYPE NATRIURETIC PEPTIDE ENGRAFTED ANTIBODIES” (Bayer Aktiengesellschaft, priority 2018, published 2025)
Where a SMILES comes first, the peptide text is derived from it. Bridges are numbered along the chain shown (N, C = ends). Where no end group is shown, it is not given here.

Legend:
[1] = target: T1, insulin degrading enzyme (IDE) (Rattus norvegicus, UniProt P35559); assay: Sensitivity towards proteolytic degradation by IDE (activity on receptor cell line after incubation); assay type: in vitro ADME; conditions: 4 hours, 37° C., 0.6 μg/ml IDE
T1 construct: purchased Merck 407241-50UG
T1 sequence (P35559 1-1019): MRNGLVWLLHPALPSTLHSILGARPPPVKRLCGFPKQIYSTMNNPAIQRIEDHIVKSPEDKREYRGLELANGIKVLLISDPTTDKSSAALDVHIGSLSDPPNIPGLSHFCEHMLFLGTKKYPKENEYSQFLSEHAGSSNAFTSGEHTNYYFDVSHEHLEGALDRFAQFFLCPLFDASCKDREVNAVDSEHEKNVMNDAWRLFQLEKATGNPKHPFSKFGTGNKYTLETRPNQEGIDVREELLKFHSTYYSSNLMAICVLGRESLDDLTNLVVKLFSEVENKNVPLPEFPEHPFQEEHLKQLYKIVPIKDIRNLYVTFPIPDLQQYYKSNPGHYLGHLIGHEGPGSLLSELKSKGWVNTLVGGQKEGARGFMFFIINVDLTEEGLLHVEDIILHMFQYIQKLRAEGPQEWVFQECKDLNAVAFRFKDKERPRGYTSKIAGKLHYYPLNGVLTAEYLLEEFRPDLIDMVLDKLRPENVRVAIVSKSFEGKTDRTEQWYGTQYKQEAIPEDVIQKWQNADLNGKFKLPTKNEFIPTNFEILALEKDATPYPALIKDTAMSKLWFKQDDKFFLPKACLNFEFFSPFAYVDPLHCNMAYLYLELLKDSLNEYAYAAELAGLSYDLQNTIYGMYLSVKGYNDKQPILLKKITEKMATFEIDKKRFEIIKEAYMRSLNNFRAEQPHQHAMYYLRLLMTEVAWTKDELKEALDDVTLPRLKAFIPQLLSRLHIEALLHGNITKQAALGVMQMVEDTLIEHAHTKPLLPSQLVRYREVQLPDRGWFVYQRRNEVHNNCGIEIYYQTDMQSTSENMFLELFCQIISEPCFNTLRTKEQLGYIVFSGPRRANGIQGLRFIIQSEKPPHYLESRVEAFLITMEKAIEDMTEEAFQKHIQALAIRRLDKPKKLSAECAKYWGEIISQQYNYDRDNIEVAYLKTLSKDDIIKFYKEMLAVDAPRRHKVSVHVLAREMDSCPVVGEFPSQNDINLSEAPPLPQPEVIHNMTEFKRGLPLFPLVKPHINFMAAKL

rat BNP receptor (NPR-A) = target: T2, rat BNP receptor (NPR-A) (Rattus norvegicus, UniProt P18910); assay: Fluorescence-based rat BNP receptor (NPR-A) GCaMP6 reporter cell line
T2 construct: expressed in transfected cells; host or cells: CHO cell line stably expressing GCaMP6, co-transfected with CNGA2 and rat NPR-A
T2 sequence (P18910 29-1057): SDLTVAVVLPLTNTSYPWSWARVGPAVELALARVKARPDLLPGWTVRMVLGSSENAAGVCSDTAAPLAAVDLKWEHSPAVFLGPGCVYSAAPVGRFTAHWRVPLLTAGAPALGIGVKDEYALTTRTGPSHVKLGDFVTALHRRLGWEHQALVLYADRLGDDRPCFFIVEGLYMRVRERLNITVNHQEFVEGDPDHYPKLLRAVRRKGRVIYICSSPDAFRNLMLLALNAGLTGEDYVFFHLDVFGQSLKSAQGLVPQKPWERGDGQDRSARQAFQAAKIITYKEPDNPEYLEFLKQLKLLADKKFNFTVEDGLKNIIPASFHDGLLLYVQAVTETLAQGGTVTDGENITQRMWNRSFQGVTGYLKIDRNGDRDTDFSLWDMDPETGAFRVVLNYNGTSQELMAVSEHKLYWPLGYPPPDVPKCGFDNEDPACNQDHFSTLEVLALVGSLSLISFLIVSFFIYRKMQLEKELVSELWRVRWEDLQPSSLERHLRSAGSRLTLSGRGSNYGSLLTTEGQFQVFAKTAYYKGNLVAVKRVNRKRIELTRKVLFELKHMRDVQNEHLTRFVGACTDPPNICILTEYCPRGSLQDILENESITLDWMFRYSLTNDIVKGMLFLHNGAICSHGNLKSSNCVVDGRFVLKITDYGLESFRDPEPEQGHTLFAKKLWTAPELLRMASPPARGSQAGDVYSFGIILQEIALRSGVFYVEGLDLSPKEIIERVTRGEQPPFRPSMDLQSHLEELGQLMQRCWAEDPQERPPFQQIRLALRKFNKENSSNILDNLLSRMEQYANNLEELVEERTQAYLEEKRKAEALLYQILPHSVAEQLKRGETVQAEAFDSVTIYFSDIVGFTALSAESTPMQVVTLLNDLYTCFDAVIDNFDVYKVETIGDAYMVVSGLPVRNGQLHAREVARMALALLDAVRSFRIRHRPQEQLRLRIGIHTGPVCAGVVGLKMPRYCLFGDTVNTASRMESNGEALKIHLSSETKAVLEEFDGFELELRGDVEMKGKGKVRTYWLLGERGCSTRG
Text: Activity data of BNP engrafted antibodies in NPR-A receptor cell line A luminescence-based rat BNP receptor (NPR-A) cell line was generated as described previously (Wunder et al. (2013), Eur J Pharmacol. 698: 131). Accordingly, a fluorescence-based rat BNP receptor (NPR-A) cell line was generated by co-transfecting a CHO cell line, stably expressing the fluorescent calcium sensor protein GCaMP6, with plasmid constructs encoding CNGA2 (cGMP biosensor) and rat NPR-A.
BNP receptor GCaMP6 cells were cultured for one day on black, clear-bottom 384-well microtiter plates (2500 cells/well). After removal of the cell culture medium reporter cells were loaded for 20 min with Tyrode (130 mM NaCl, 5 mM KCl, 2 mM CaCl2, 20 mM HEPES, 1 mM MgCl2, 4.8 mM NaHCO3 at pH 7.4) containing a black masking dye at 37° C. and 5% CO2. IBMX (0.2 mM) was used to prevent cGMP degradation by endogenous phosphodiesterases.
Fluorescence measurements (3 min, kinetic mode) were directly started upon agonist addition. Receptor ligands were added in Tyrode containing a black masking dye and 0.1% BSA. Measurements were done on a FLIPR Tetra®.

[2] = target: T3, neutral endopeptidase (NEP) (Homo sapiens, UniProt P08473); assay: Sensitivity towards proteolytic degradation by NEP (activity on receptor cell line after incubation); assay type: in vitro ADME; conditions: 4 hours, 37° C., 0.6 μg/ml NEP
T3 construct: purchased R&D Systems 1182-ZNC
T3 sequence (P08473 whole entry): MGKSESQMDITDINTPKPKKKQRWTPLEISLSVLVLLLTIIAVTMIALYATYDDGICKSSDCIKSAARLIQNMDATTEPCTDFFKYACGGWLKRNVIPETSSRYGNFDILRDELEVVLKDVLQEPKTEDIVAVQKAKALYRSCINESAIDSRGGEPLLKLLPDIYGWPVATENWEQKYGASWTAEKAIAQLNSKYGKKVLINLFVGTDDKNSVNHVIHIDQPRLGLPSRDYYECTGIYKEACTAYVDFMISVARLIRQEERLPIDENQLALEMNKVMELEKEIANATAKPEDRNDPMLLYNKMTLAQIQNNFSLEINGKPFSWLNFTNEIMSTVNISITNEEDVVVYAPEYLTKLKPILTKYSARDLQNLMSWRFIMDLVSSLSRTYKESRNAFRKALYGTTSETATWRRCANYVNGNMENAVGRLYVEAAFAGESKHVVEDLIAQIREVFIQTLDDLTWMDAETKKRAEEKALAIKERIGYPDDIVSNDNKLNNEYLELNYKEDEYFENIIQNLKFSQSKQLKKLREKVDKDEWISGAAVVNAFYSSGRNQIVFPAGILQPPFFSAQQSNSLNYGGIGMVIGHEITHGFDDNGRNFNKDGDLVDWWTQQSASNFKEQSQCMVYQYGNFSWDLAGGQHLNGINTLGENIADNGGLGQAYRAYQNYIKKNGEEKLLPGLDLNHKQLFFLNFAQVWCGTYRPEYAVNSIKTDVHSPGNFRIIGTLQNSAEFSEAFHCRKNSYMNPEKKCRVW

[3] = tested on: PE-contracted aortic rings; assay: Vasorelaxation of isolated rat aortic rings contracted by phenylephrine
Experimental: All experiments were conducted in accordance with institutional guidelines and approved by the local committee on animal experiments. Male Sprague-Dawley rats (weighing 250-300 g) were anesthetized with pentobarbital sodium (40 mg/kg i.p.), killed by decapitation, and exsanguinated. The thoracic aorta was excised and placed in ice-cold Krebs buffer of the following composition: 130 mM NaCl, 14.9 mM NaHCO3, 5.5 mM dextrose, 4.7 mM KCl, 1.18 mM KH2PO4, 1.17 mM MgSO47H2O, and 1.6 mM CaCl22H2O. The vessel was pinned in a Sylgard Petri dish filled with chilled Krebs' solution, cleaned of fat and connective tissue, and cut into ring segments of approximately 3 to 4 mm in length. […] Changes in isometric force were recorded using a PowerLab data acquisition system (software Lab Chart 7.0)
After the equilibration period, aortic rings were challenged with 80 mM KCl to check tissue viability. Next, the endothelial integrity of the preparations was determined by verifying the responsiveness to acetylcholine (ACh, 1 μM) in vessels pre-contracted with Phenylephrine (PE, 1 μM). After wash-out and a period of equilibration, Phenylephrine (PE, 1 μM) was used to induce contraction, thereafter natriuretic peptides and natriuretic peptide engrafted IgGs were evaluated for vasorelaxation.

[4] = tested on: spontaneously hypertensive rats; assay: Blood pressure by radiotelemetry in conscious spontaneously hypertensive rats; assay type: in vivo, rat; set-up: drop in mean arterial blood pressure (MAP): dose or concentration left out as unconfirmed; conditions: intraperitoneal
Experimental: Female spontaneously hypertensive rats (SHR/N Crl BR, Charles River) with a body weight of 210-300 g were used for these studies. All animals were housed in individual cages at 22-24° C. ambient temperature and maintained on a 12-hour light/dark cycle with free access to standard laboratory rat chow and water ad libitum. Telemeter (HD-10, DSI) implantation was performed a minimum of 14 days before animals were used for blood pressure measurements. Surgery was performed under aseptic conditions. After shaving the abdominal wall, a midline abdominal incision was made, and the fluid-filled sensor catheter was inserted upstream into the exposed descending aorta between the iliac bifurcation and the renal arteries. According to the DSI guidelines the tip of the telemetric catheter was located caudal to the renal arteries and secured by tissue adhesive. The transmitter body was affixed to the inner peritoneal wall before closure of the abdomen. […] Data are expressed as % of basal values±SEM of at least 4 animals per group. The basal value for each animal was calculated as the average of the values measured in two hours prior to substance application (7:00-9:00 AM). Data are then expressed as averages every half hour, starting 15 minutes post application. […]

## CC[C@H](C)[C@@H]1NC(=O)[C@H](CCCNC(=N)N)NC(=O)[C@H](CC(=O)O)NC(=O)[C@H](CCSC)NC(=O)[C@H](CCCNC(=N)N)NC(=O)CNC(=O)CNC(=O)[C@H](Cc2ccccc2)NC(=O)[C@@H](NC(=O)[C@H](CO)NC(=O)[C@H](CO)NC(=O)[C@H](CCCNC(=N)N)NC(=O)[C@H](CCCNC(=N)N)NC(=O)[C@H](CC(C)C)NC(=O)[C@@H](N)CO)CSSC[C@@H](C(=O)N[C@@H](CC(N)=O)C(=O)N[C@@H](CO)C(=O)N[C@@H](Cc2ccccc2)C(=O)N[C@@H](CCCNC(=N)N)C(=O)N[C@@H](Cc2ccc(O)cc2)C(=O)O)NC(=O)CNC(=O)[C@H](CC(C)C)NC(=O)CNC(=O)[C@H](CO)NC(=O)[C@H](CCC(N)=O)NC(=O)[C@H](C)NC(=O)CNC1=O [ANP, reference compound]
[1]
  sensitivity/resistance to proteolytic degradation by IDE: high sensitivity

## CC[C@H](C)[C@@H]1NC(=O)[C@H](CCCNC(=N)N)NC(=O)[C@H](CC(=O)O)NC(=O)[C@H]([C@@H](C)CC)NC(=O)[C@H](CCCCN)NC(=O)[C@H](CCC(N)=O)NC(=O)CNC(=O)[C@H](Cc2ccccc2)NC(=O)[C@@H](NC(=O)[C@H](CO)NC(=O)[C@H](CO)NC(=O)[C@H](CO)NC(=O)[C@H](Cc2c[nH]cn2)NC(=O)[C@H](C)NC(=O)[C@H](CCSC)NC(=O)[C@H](CCCCN)NC(=O)[C@H](CO)NC(=O)[C@@H](N)CC(N)=O)CSSC[C@@H](C(=O)N[C@@H](CC(=O)O)C(=O)NCC(=O)N[C@@H](CC(C)C)C(=O)N[C@@H](CCCNC(=N)N)C(=O)N[C@@H](CC(C)C)C(=O)N[C@@H](Cc2ccccc2)C(=O)O)NC(=O)CNC(=O)[C@H](CC(C)C)NC(=O)[C@H](CCCNC(=N)N)NC(=O)[C@H](CO)NC(=O)[C@H](C(C)C)NC(=O)[C@H](C)NC(=O)CNC1=O [BNP, reference compound] (H-NSKMAHSSSCFGQKIDRIGAVSRLGCDGLRLF-OH; disulfide 10-26; N-terminus and C-terminus assumed)
Rat BNP receptor (NPR-A)
  EC50: 2.9 nM
[2]
  sensitivity/resistance to proteolytic degradation by NEP: high sensitivity
[1]
  sensitivity/resistance to proteolytic degradation by IDE: high sensitivity

## ANP peptide: Rat ANP peptide (ADH-GM-10057T, Santai Labs) used as a reference (SLRRSSCFGGRIDRIGAQSGLGCNSFRY; disulfide 7-23; UniProt P01161 123-150, looked up) [reference compound]
[3]
  vasodilation in PE-contracted aortic rings: dose-dependent vasodilation
[3]; endothelium-intact rat aortic rings contracted by phenylephrine (1 μM)
  Potency (log EC50 values), vasodilation: −7.4
[4]
  drop in mean arterial blood pressure (MAP): approximately 25%
[4]; 500 g dose
  duration of effect on MAP: 6 to 8 h
